Assay results reported in patent US7834005B2, “Pyrrolobenzodiazepine derivatives, compositions comprising the same and methods related thereto” (The United States of America as represented by the …, priority 2003, dated 2010).
Like-named read-outs stand apart in the source and are kept apart here.

Tests used:
NCI-H322M = experiment: 60-cell-line screen: NCI-H322M (Non-Small Cell Lung); assay type: cell-based; settings: read-out: LC50 (the source's name)
MALME-3M = experiment: 60-cell-line screen: MALME-3M (Melanoma); assay type: cell-based
SK-OV-3 = experiment: 60-cell-line screen: SK-OV-3 (Ovarian); assay type: cell-based
Text: (§1) The concentration effects of the compound for various cancer cell lines are summarized in Tables 2-10, wherein GI50 is the drug concentration required to inhibit the growth of 50% of the cells, TGI is the drug concentration required for total growth inhibition, and LC50 is the drug concentration required to kill 50% of the cells.

SK-MEL-28 = experiment: 60-cell-line screen: SK-MEL-28 (Melanoma); assay type: cell-based; settings: read-out: LC50 (the source's name)
DU-145 = experiment: 60-cell-line screen: DU-145 (Prostate); assay type: cell-based
NCI-H522 = experiment: 60-cell-line screen: NCI-H522 (Non-Small Cell Lung); assay type: cell-based; settings: read-out: LC50 (the source's name)
COLO 205 = experiment: 60-cell-line screen: COLO 205 (Colon); assay type: cell-based
U251 = experiment: 60-cell-line screen: U251 (Central Nervous System); assay type: cell-based; settings: read-out: LC50 (the source's name)
OVCAR-8 = experiment: 60-cell-line screen: OVCAR-8 (Ovarian); assay type: cell-based
Text: as §1

BT-549 = experiment: 60-cell-line screen: BT-549 (Breast); assay type: cell-based; settings: read-out: LC50 (the source's name)
Text: as §1

PC-3 = experiment: 60-cell-line screen: PC-3 (Prostate); assay type: cell-based
OVCAR-3 = experiment: 60-cell-line screen: OVCAR-3 (Ovarian); assay type: cell-based
Text: as §1

NCI-H460 = experiment: 60-cell-line screen: NCI-H460 (Non-Small Cell Lung); assay type: cell-based; settings: read-out: LC50 (the source's name)
786-0 = experiment: 60-cell-line screen: 786-0 (Renal); assay type: cell-based
HOP-92 = experiment: 60-cell-line screen: HOP-92 (Non-Small Cell Lung); assay type: cell-based; settings: read-out: LC50 (the source's name)
OVCAR-5 = experiment: 60-cell-line screen: OVCAR-5 (Ovarian); assay type: cell-based
Text: as §1

MDA-MB-435 = experiment: 60-cell-line screen: MDA-MB-435 (Breast); assay type: cell-based
NCI-H226 = experiment: 60-cell-line screen: NCI-H226 (Non-Small Cell Lung); assay type: cell-based; settings: read-out: LC50 (the source's name)
M14 = experiment: 60-cell-line screen: M14 (Melanoma); assay type: cell-based; settings: read-out: LC50 (the source's name)
UO-31 = experiment: 60-cell-line screen: UO-31 (Renal); assay type: cell-based
SF-539 = experiment: 60-cell-line screen: SF-539 (Central Nervous System); assay type: cell-based; settings: read-out: LC50 (the source's name)
Text: as §1

HS 578T = experiment: 60-cell-line screen: HS 578T (Breast); assay type: cell-based; settings: read-out: LC50 (the source's name)
Text: as §1

SNB-75 = experiment: 60-cell-line screen: SNB-75 (Central Nervous System); assay type: cell-based
EKVX = experiment: 60-cell-line screen: EKVX (Non-Small Cell Lung); assay type: cell-based; settings: read-out: LC50 (the source's name)
MDA-N = experiment: 60-cell-line screen: MDA-N (Breast); assay type: cell-based
CCRF-CEM = experiment: 60-cell-line screen: CCRF-CEM (Leukemia); assay type: cell-based
IGROV1 = experiment: 60-cell-line screen: IGROV1 (Ovarian); assay type: cell-based
T-47D = experiment: 60-cell-line screen: T-47D (Breast); assay type: cell-based; settings: read-out: LC50 (the source's name)
HCT-15 = experiment: 60-cell-line screen: HCT-15 (Colon); assay type: cell-based; settings: read-out: LC50 (the source's name)
SF-268 = experiment: 60-cell-line screen: SF-268 (Central Nervous System); assay type: cell-based; settings: read-out: LC50 (the source's name)
Text: as §1

MDA-MB-231/ATCC = experiment: 60-cell-line screen: MDA-MB-231/ATCC (Breast); assay type: cell-based
Text: as §1

HOP-62 = experiment: 60-cell-line screen: HOP-62 (Non-Small Cell Lung); assay type: cell-based; settings: read-out: LC50 (the source's name)
NCI-H23 = experiment: 60-cell-line screen: NCI-H23 (Non-Small Cell Lung); assay type: cell-based
NCI/ADR-RES = experiment: 60-cell-line screen: NCI/ADR-RES (Breast); assay type: cell-based
Text: as §1

ACHN = experiment: 60-cell-line screen: ACHN (Renal); assay type: cell-based
SNB-19 = experiment: 60-cell-line screen: SNB-19 (Central Nervous System); assay type: cell-based; settings: read-out: LC50 (the source's name)
SW-620 = experiment: 60-cell-line screen: SW-620 (Colon); assay type: cell-based; settings: read-out: LC50 (the source's name)
Text: as §1

OVCAR-4 = experiment: 60-cell-line screen: OVCAR-4 (Ovarian); assay type: cell-based
Text: as §1

UACC-62 = experiment: 60-cell-line screen: UACC-62 (Melanoma); assay type: cell-based
SF-295 = experiment: 60-cell-line screen: SF-295 (Central Nervous System); assay type: cell-based; settings: read-out: LC50 (the source's name)
Text: as §1

KM12 = experiment: 60-cell-line screen: KM12 (Colon); assay type: cell-based; settings: read-out: LC50 (the source's name)
Text: as §1

SN12C = experiment: 60-cell-line screen: SN12C (Renal); assay type: cell-based
SK-MEL-2 = experiment: 60-cell-line screen: SK-MEL-2 (Melanoma); assay type: cell-based
UACC-257 = experiment: 60-cell-line screen: UACC-257 (Melanoma); assay type: cell-based
RPMI-8226 = experiment: 60-cell-line screen: RPMI-8226 (Leukemia); assay type: cell-based
A549/ATCC = experiment: 60-cell-line screen: A549/ATCC (Non-Small Cell Lung); assay type: cell-based; settings: read-out: LC50 (the source's name)
Text: as §1

MOLT-4 = experiment: 60-cell-line screen: MOLT-4 (Leukemia); assay type: cell-based
CAKI-1 = experiment: 60-cell-line screen: CAKI-1 (Renal); assay type: cell-based
TK-10 = experiment: 60-cell-line screen: TK-10 (Renal); assay type: cell-based
[1] = read-out: LC50 (the source's name)

C=C1C[C@H]2C(O)Nc3cc(OCCCOc4cc5c(cc4OC)C(=O)N4CC(=C)C[C@H]4C(O)N5)c(OC)cc3C(=O)N2C1 (stereo partly shown) [Compound 16]
CC50 (NCI-H322M): 1 µM
LC50 (MALME-3M): −7.15 Log10[C] (M)
CC50 (MALME-3M; [1]): 0.0708 µM
LC50 (SK-OV-3): −6 Log10[C] (M)
LC50 (SK-OV-3; read-out: LC50): 1 µM
CC50 (SK-MEL-28): 1 µM
LC50 (DU-145): −6 Log10[C] (M)
CC50 (DU-145; [1]): 1 µM
CC50 (NCI-H522): 1 µM
LC50 (COLO 205): −6.6 Log10[C] (M)
CC50 (COLO 205; [1]): 0.251 µM
CC50 (U251): 1 µM
LC50 (OVCAR-8): −6 Log10[C] (M)
CC50 (OVCAR-8; [1]): 1 µM
CC50 (BT-549): 1 µM
LC50 (PC-3): −6 Log10[C] (M)
CC50 (PC-3; [1]): 1 µM
LC50 (OVCAR-3): −6 Log10[C] (M)
CC50 (OVCAR-3; [1]): 1 µM
CC50 (NCI-H460): 1 µM
LC50 (786-0): −6 Log10[C] (M)
CC50 (786-0; [1]): 1 µM
CC50 (HOP-92): 1 µM
LC50 (OVCAR-5): −6 Log10[C] (M)
CC50 (OVCAR-5; [1]): 1 µM
LC50 (MDA-MB-435): −7.07 Log10[C] (M)
CC50 (MDA-MB-435; [1]): 0.0851 µM
CC50 (NCI-H226): 1 µM
CC50 (M14): 1 µM
LC50 (UO-31): −6 Log10[C] (M)
CC50 (UO-31; [1]): 1 µM
CC50 (SF-539): 1 µM
CC50 (HS 578T): 1 µM
LC50 (SNB-75): −6.33 Log10[C] (M)
CC50 (SNB-75; [1]): 0.468 µM
CC50 (EKVX): 1 µM
LC50 (MDA-N): −7.24 Log10[C] (M)
CC50 (MDA-N; [1]): 0.0575 µM
LC50 (CCRF-CEM): −6 Log10[C] (M)
CC50 (CCRF-CEM; [1]): 1 µM
LC50 (IGROV1): −6 Log10[C] (M)
LC50 (IGROV1; read-out: LC50): 1 µM
CC50 (T-47D): 1 µM
CC50 (HCT-15): 1 µM
CC50 (SF-268): 1 µM
LC50 (MDA-MB-231/ATCC): 1 µM
CC50 (HOP-62): 1 µM
LC50 (NCI-H23): −7.17 Log10[C] (M)
CC50 (NCI-H23; [1]): 0.0676 µM
LC50 (NCI/ADR-RES): 1 µM
LC50 (ACHN): −6 Log10[C] (M)
CC50 (ACHN; [1]): 1 µM
CC50 (SNB-19): 1 µM
CC50 (SW-620): 1 µM
LC50 (OVCAR-4): −6 Log10[C] (M)
CC50 (OVCAR-4; [1]): 1 µM
LC50 (UACC-62): −8.15 Log10[C] (M)
CC50 (UACC-62; [1]): 0.0071 µM
CC50 (SF-295): 1 µM
LC50 (HL-60(TB); Leukemia): −7.55 Log10[C] (M)
CC50 (HL-60(TB); read-out: LC50, Leukemia): 0.0282 µM
CC50 (KM12): 1 µM
LC50 (SN12C): −6 Log10[C] (M)
CC50 (SN12C; [1]): 1 µM
LC50 (SK-MEL-2): −7.14 Log10[C] (M)
CC50 (SK-MEL-2; [1]): 0.0724 µM
LC50 (UACC-257): 1 µM
LC50 (RPMI-8226): −7.08 Log10[C] (M)
CC50 (RPMI-8226; [1]): 0.0832 µM
CC50 (A549/ATCC): 1 µM
LC50 (MOLT-4): −7.15 Log10[C] (M)
CC50 (MOLT-4; [1]): 0.0708 µM
LC50 (CAKI-1): −6 Log10[C] (M)
CC50 (CAKI-1; [1]): 1 µM
LC50 (TK-10): −6 Log10[C] (M)
LC50 (TK-10; read-out: LC50): 1 µM
